Assays:
Test in all cases: EMSA
Format in all cases: binding
Settings in all cases: labelled compound (32P, ~1 uM), 20 uM protein; pH 7.5, 25 C
NdSTING = target: T1, NdSTING (Niabella drilacis, UniProt A0A1G6LGU2)
T1 sequence (A0A1G6LGU2 1-312): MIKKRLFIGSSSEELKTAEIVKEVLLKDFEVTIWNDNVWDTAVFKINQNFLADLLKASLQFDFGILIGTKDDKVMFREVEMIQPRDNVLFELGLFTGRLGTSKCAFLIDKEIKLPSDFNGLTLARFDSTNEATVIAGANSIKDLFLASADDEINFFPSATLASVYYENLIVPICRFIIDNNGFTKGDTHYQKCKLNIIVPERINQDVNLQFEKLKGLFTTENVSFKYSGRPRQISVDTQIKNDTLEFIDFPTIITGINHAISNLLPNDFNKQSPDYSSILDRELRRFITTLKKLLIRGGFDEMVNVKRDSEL

FdSTING = target: T2, FdSTING (Flavobacterium daejeonense, UniProt P0DUD9)
T2 sequence (P0DUD9 1-311): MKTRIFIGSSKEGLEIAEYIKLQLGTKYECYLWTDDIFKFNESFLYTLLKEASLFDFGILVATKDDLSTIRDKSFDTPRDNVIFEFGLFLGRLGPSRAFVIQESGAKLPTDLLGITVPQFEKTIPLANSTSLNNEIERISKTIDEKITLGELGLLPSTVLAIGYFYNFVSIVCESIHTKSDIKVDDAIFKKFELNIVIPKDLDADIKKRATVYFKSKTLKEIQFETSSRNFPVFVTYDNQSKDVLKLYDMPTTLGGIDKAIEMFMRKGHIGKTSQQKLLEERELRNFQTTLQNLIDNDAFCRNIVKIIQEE

LbSTING = target: T3, LbSTING (Lachnospiraceae bacterium RUG226, UniProt P0DUE0)
T3 sequence (P0DUE0 1-316): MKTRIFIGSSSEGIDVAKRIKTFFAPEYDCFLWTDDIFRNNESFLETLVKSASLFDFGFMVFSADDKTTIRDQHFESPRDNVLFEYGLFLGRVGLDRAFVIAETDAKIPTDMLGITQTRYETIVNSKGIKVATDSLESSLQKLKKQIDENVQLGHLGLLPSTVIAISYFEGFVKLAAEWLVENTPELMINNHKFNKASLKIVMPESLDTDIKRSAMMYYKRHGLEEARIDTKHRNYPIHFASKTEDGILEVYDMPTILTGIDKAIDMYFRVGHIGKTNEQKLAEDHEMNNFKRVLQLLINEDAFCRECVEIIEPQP

AaSTING = AaSTING (Aggregatibacter actinomycetemcomitans, UniProt A0A5D0EMF2)
AaSTING, sequence (A0A5D0EMF2 whole entry): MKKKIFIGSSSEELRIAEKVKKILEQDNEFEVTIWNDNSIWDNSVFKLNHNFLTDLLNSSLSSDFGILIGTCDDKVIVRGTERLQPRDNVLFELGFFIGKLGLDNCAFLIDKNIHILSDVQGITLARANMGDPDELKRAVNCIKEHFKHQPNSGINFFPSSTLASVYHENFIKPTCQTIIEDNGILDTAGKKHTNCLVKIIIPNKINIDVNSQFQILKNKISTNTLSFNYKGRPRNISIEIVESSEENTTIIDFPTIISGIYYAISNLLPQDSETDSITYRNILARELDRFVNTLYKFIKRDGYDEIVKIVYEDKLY

In the case of `Nc1nc2c(ncn2[C@@H]2O[C@@H]3COP(=O)(O)O[C@H]4[C@@H](O)[C@H](n5cnc6c(=O)[nH]c(N)nc65)O[C@@H]4COP(=O)(O)O[C@H]3[C@H]2O)c(=O)[nH]1` [c-di-GMP], the EMSA (NdSTING) is reported as “diverse panel of bacterial STING homologues demonstrates conservation of c-di-GMP binding”, the EMSA (FdSTING) is reported as “diverse panel of bacterial STING homologues demonstrates conservation of c-di-GMP binding” and the EMSA (LbSTING) is reported as “Bacterial STING receptors specifically recognize c-di-GMP”. For the same compound, the EMSA (AaSTING) was “Bacterial STING receptors specifically recognize c-di-GMP”.
